According to patent publication US20240269238A1, “Therapeutic Regimens and Methods for Reducing Body Weight in a Subject with Fatty Liver Disease using a GLP-1R and GCGR Agonist” (Spitfire Pharma LLC, priority 2022, published 2024):
Entries after “also recorded” stand apart in the source; their conditions may differ.

Columns and labels:
Format in all cases: in vivo, human
[1] = tested on: plasma lipids and lipoproteins; test: Phase 1 study NCT0456124 (Example 2): lipoprotein profiling by NMR and lipidomic profiling by UHPLC-MS
Description: To test the lipid-lowering effects of pemvidutide, an analysis of Phase I clinical trial (NCT0456124) data was carried out. The subjects with overweight/obesity (BMI 25-40 kg/m^2) were randomized at 1 site in Australia (NCT0456124). Subjects were randomized 4:1 pemvidutide:placebo, with placebos pooled. […] Lipoprotein and glycoprotein profiling covering 33 lipoprotein related parameters was performed by ^1H-NMR on fasting plasma samples obtained at Day −1 (baseline), Day 43, and Day 84 from the 34 subjects who completed NCT0456124. Lipidomic profiling covering 600 lipid species was performed by ultra-high performance liquid chromatography-mass spectrometry on fasting plasma samples obtained at Day −1 (baseline), Day 43, and Day 84 from the 34 subjects who completed NCT0456124. For the lipid profiling, plasma fractionation was performed either using methanol to extract fatty acyls, bile acids, steroids, and lyso-glycerophospholipids, or using a chloroform/methanol mix to extract glycerolipids, cholesteryl esters, sphingolipids, and glycerophospholipids. Lipid classification followed the classification system proposed by Fahy et al. (J. Lipid Res. 2005; 46:839-861) and the LIPID MAPS initiative (http://www.lipidmaps.org) (see FIG. 8).
The color code represents the log 2 (robust fold-change) with blue colors denoting reduced lipoproteins (negative fold-changes) and red colors denoting increased lipoproteins (positive fold-changes).
Given the observed changes in the total cholesterol, triglycerides and lipoproteins, an evaluation of the serum lipid composition covering 600 lipid species at Day −1 (baseline), Day 43, and Day 84 from the 34 subjects who completed NCT0456124 was performed. Results are presented in FIG. 10 as log 2 pairwise fold change with blue colors denoting a reduction in the lipid relative to baseline, and red an increase. The grey/black bars indicate significant p-values of Wilcoxon test.
The horizontal dashed line represents the lower limit of significance, while the vertical lines show a fold-change from baseline of ±0.75 on the log 2 scale.

[2] = Phase 1 study NCT0456124 (Example 2): safety and tolerability; details: 12 weeks
[3] = Phase 1b 24-week NAFLD study (Example 3): serum lipids, blood pressure, heart rate, glycemic control
Text: Provided herein is disclosure of a 12-week extension study of the study provided in Example 1, providing a 24-week a Phase 1b, randomized, double-blind, placebo-controlled study to assess the effects of pemvidutide (also termed herein as ALT-801), the safety of pemvidutide and effects on weight loss, hepatic fat fraction, anthropometric parameters, lipid metabolism, as well as inflammatory, fibrosis and other markers in diabetic and non-diabetic (type 2 diabetes) overweight and obese (BMI≥28.0 kg/m^2) subjects with NAFLD (defined as liver fat content (LFC) by MRI-PDFF ≥10%; absence of significant fibrosis, defined as FibroScan® LSM ≤10 kPa), alanine aminotransferase (ALT) and aspartate aminotransferase (AST) laboratory values of ≤75 IU/L and HbA1c <9.5. Men and women aged 18-65 years were studied. Diabetic subjects were defined as those that have undergone stable dose (≥3 months) metformin or SLGT-2 therapy and no use of insulin, sulfonylureas, DPP-4, GLP-1 treatment; Ninety-four (94) subjects were enrolled in the initial 12-week Phase 1b NAFLD trial and 83 subjects who completed were invited to receive a total of 12 additional weeks of blinded treatment. Of those subjects, 66 consented to rollover, of which 64 were eligible to participate.
The primary endpoint of this study was a reduction in liver fat content (LFC) by MRI-PDFF at Week 24 compared to Week 0 (zero). Key secondary endpoints include percent (%) weight loss at Week 24 compared to Week 0 (zero), and liver inflammation by alanine aminotransferase (ALT) levels and corrected T1 (cT1) imaging at Week 24 as compared to Week 0 (zero). Adverse events (AEs), including serious and severe AEs, AEs leading to discontinuation, GI tolerability, vital signs, and glycemic control including fasting glucose and HbA1c levels were also measured.

## CC[C@H](C)[C@H](NC(=O)[C@H](Cc1ccccc1)NC(=O)[C@H](CCC(=O)O)NC(=O)[C@@H]1CCCCNC(=O)CC[C@H](NC(=O)[C@H](CC(=O)O)NC(=O)[C@H](CC(C)C)NC(=O)[C@H](Cc2ccc(O)cc2)NC(=O)[C@H](CCCCN)NC(=O)[C@H](CO)NC(=O)[C@H](Cc2ccc(O)cc2)NC(=O)[C@H](CC(=O)O)NC(=O)[C@H](CO)NC(=O)[C@@H](NC(=O)[C@H](Cc2ccccc2)NC(=O)[C@@H](NC(=O)CNC(=O)[C@H](CCC(N)=O)NC(=O)C(C)(C)NC(=O)[C@@H](N)Cc2c[nH]cn2)[C@@H](C)O)[C@H](C)O)C(=O)N[C@@H](CCCCNC(=O)C2O[C@@H](OCCCCCCCCCCCCCCCCCC(=O)O)C(O)C(O)[C@@H]2O)C(=O)N[C@@H](C)C(=O)N[C@@H](C)C(=O)N1)C(=O)N[C@@H](CCC(N)=O)C(=O)N[C@@H](Cc1c[nH]c2ccccc12)C(=O)N[C@@H](CC(C)C)C(=O)N[C@@H](CC(C)C)C(=O)N[C@@H](CCC(N)=O)C(=O)N[C@H](C(N)=O)[C@@H](C)O (some centres unmarked) [ALT-801, Pemvidutide]
[1]; 1.8 mg
  phosphatidyl-ethanolamine (PE) glycerophospholipids level: significantly reduced atherosclerotic plaque forming phosphatidyl-ethanolamine (PE) glycerophospholipids level
  pro-atherogenic lyso-PC levels: significantly reduced pro-atherogenic lyso-PC levels
[1]; Day 43 and Day 84 vs Day -1
  number of VLDL and LDL particles and of smaller HDL particles (2D-NMR): tend to be reduced
[1]; within 12 weeks of treatment
  serum lipid levels (glycerolipids, glycerophospholipids, sphingolipids): significantly reduced serum lipid levels
[2]; 1.2, 1.8, 2.4 mg weekly, no dose titration
  tolerability: well-tolerated at all dose levels; also recorded: safe and well-tolerated
[2]
  SAEs or AEs leading to treatment discontinuation: no SAEs or AEs leading to treatment discontinuation were reported
  severity of AEs: mild or moderate severity
[3]; 2.4 mg per week, week 24
  systolic blood pressure reduction: significant
[3]; all doses, week 24
  blood pressure and heart rate: improvements in blood pressure without clinically meaningful increases in heart rate
  serum lipids: improvements in serum lipids
[3]; diabetic patients, all doses, Week 24
  glycemic parameters (fasting glucose and HbA1c): improvements in glycemic parameters
